In patent US20060281700A1, “SYNERGISTIC MODULATION OF FLT3 KINASE USING AMINOPYRIMIDINES KINASE MODULATORS” (priority 2005, published 2006):

Columns and labels:
[1] = system: MV4-11 cells; test: Inhibition of MV4-11 cell proliferation (CellTiterGlo, 72 hours); assay type: cell-based; conditions: Homo sapiens; 72 hours growth; uncertainty ±20%
Protocol: Inhibition Of MV4-11 and Baf3 Cell Proliferation
To assess the cellular potency of the FLT3 inhibitors of Formula I′, FLT3 specific growth inhibition was measured in the leukemic cell line MV4-11 (ATCC Number: CRL-9591). […] MV4-11 cells cannot grow and survive without active FLT3ITD.
To measure proliferation inhibition by test compounds, the luciferase based CellTiterGlo reagent (Promega), which quantifies total cell number based on total cellular ATP concentration, was used. Cells are plated at 10,000 cells per well in 100 ul of in RPMI media containing penn/strep, 10% FBS and 1 ng/ml GM-CSF or 1 ng/ml IL-3 for MV4-11 and Baf3 cells respectively.
Compound dilutions or 0.1% DMSO (vehicle control) are added to cells and the cells are allowed to grow for 72 hours at standard cell growth conditions (37° C., 5% CO2). For activity measurements in MV4-11 cells grown in 50% plasma, cells were plated at 10,000 cells per well in a 1:1 mixture of growth media and human plasma (final volume of 100 μL). To measure total cell growth an equal volume of CellTiterGlo reagent was added to each well, according to the manufacturer's instructions, and luminescence was quantified. Total cell growth was quantified as the difference in luminescent counts (relative light units, RLU) of cell number at Day 0 compared to total cell number at Day 3 (72 hours of growth and/or compound treatment). One hundred percent inhibition of growth is defined as an RLU equivalent to the Day 0 reading. Zero percent inhibition was defined as the RLU signal for the DMSO vehicle control at Day 3 of growth. All data points are an average of triplicate samples. […] Inhibition and IC50 data analysis was done with GraphPad Prism using a non-linear regression fit with a multiparamater, sigmoidal dose-response (variable slope) equation.
MV4-11 cells express the FLT3 internal tandem duplication mutation, and thus are entirely dependent upon FLT3 activity for growth. […] In contrast, the Baf3 cell proliferation is driven by the cytokine IL-3 and thus are used as a non-specific toxicity control for test compounds.

[2] = target: T1, isolated kinase domain of the human FLT3 receptor (a.a. 571-993) (Homo sapiens, UniProt P36888); test: FLT3 Fluorescence Polarization Kinase Assay; assay type: biochemical; conditions: 10 nM FLT3 571-993, 150 uM ATP; uncertainty ±10%
T1 construct: isolated kinase domain of the human FLT3 receptor (a.a. 571-993)
T1 sequence (P36888 571-993): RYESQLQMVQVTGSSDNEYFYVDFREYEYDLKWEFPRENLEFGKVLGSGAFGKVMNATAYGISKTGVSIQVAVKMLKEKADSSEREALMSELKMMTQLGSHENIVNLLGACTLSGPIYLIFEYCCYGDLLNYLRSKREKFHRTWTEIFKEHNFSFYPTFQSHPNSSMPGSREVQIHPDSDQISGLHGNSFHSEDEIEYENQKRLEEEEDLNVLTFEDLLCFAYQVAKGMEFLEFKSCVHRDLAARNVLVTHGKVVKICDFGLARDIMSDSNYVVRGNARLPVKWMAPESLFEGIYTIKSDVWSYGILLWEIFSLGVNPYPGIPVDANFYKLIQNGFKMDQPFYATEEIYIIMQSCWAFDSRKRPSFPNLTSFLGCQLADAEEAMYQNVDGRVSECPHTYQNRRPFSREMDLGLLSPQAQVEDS
Protocol: FLT3 Fluorescence Polarization Kinase Assay
To determine the activity of the FLT3 inhibitors of Formula I′ in an in vitro kinase assay, inhibition of the isolated kinase domain of the human FLT3 receptor (a.a. 571-993) was performed using the following fluorescence polarization (FP) protocol. The FLT3 FP assay utilizes the fluorescein-labeled phosphopeptide and the anti-phosphotyrosine antibody included in the Panvera Phospho-Tyrosine Kinase Kit (Green) supplied by Invitrogen. When FLT3 phosphorylates polyGlu4Tyr, the fluorescein-labeled phosphopeptide is displaced from the anti-phosphotyrosine antibody by the phosphorylated poly Glu4Tyr, thus decreasing the FP value. The FLT3 kinase reaction is incubated at room temperature for 30 minutes under the following conditions: 10 nM FLT3 571-993, 20 ug/mL poly Glu4Tyr, 150 uM ATP, 5 mM MgCl2, 1% compound in DMSO. The kinase reaction is stopped with the addition of EDTA. The fluorescein-labeled phosphopeptide and the anti-phosphotyrosine antibody are added and incubated for 30 minutes at room temperature.
All data points are an average of triplicate samples. Inhibition and IC50 data analysis was done with GraphPad Prism using a non-linear regression fit with a multiparamater, sigmoidal dose-response (variable slope) equation.

SMILES | IC50 [1] [nM] | IC50 [2] [nM]
CO/N=C/c1c(N)ncnc1N1CCC(NC(=O)Nc2ccc(N3CCCC3)cc2)CC1 [Number 24, 1-{1-[6-Amino-5-(methoxyimino-methyl)-pyrimidin-4-yl]-piperidin-4-yl}-3-(4-pyrrolidin-1-yl-phenyl)-urea] | 1100 | 198
CO/N=C/c1c(N)ncnc1N1CCC(NC(=O)Nc2ccc(C(C)C)cc2)C1 (stereo not shown) [Number 30, 1-{1-[6-Amino-5-(methoxyimino-methyl)-pyrimidin-4-yl]-pyrrolidin-3-yl}-3-(4-isopropyl-phenyl)-urea] | 209 | 4700
CC(C)c1ccc(NC(=O)NC2CCN(c3ncnc(N)c3/C=N/OCCN)C2)cc1 (stereo not shown) [Number 27, 1-(1-{6-Amino-5-[(2-amino-ethoxyimino)-methyl]-pyrimidin-4-yl}-pyrrolidin-3-yl)-3-(4-isopropyl-phenyl)-urea] | 1700 | > 10000
CC(C)Oc1ccc(NC(=O)OC2CCN(c3ncnc(N)c3/C=N/OCCN3CCOCC3)CC2)cc1 [Number 3, (4-Isopropoxy-phenyl)-carbamic acid 1-{6-amino-5-[(2-morpholin-4-yl-ethoxyimino)-methyl]-pyrimidin-4-yl}-piperidin-4-yl ester] | 2800 | 820
CO/N=C/c1c(N)ncnc1N1CCC(NC(=O)Cc2ccc(C(C)C)cc2)CC1 [Number 16, N-{1-[6-Amino-5-(methoxyimino-methyl)-pyrimidin-4-yl]-piperidin-4-yl}-2-(4-isopropyl-phenyl)-acetamide] | 1400 | 1800
